We go through ten compounds from patent publication US20260116845A1, “LIPIDS AND COMPOSITIONS THEREOF” (Kernal Biologics, Inc., priority 2023, published 2026).

One assay deals with AML12 Cell Line. In words: Transfection of AML12 Cell Line with FLuc mRNA LNPs (ONE-Glo EX luciferase signal). Particulars: 200 ng Fluc mRNA-LNP, 24 hours; Table 4. The assay is classed as cell-based. How it is done: (§1) mRNA encapsulated lipid nanoparticles (mRNA LNPs) were formulated using microfluidic mixing with a PNI Ignite instrument. Briefly, lipids (ionizable: structural: helper: PEG) were dissolved in ethanol and mixed with and aqueous solution of mRNA. These mRNA-loaded dispersions were then neutralized via a buffer exchange with a pre-determined buffer overnight. Afterwards, formed LNPs were concentrated with Amicon filter centrifugation, filtered, concentration of mRNA determined through a ribogreen assay, and frozen at −80° C. until use.
(§2) Cell lines were grown to confluence in T75 flasks using complete media of DMEM-F12 for AML12 and DMEM for both B16F10 and MC38.K. Cells were plated in a white 96 flat-well plate (AML12=20,000 cells/well, B16F10 and MC38.K=5,000 cells/well) with their respected media. Lipid nanoparticles were first diluted to 50 μg/ml using Opti-MEM and pre-incubated with mouse serum for 30 minutes to give an LNP concentration of 8 μg/ml. Cell media was replaced with Opti-MEM and LNPs were added to cells (200 ng of mRNA-LNP), placed back in the incubator, and allowed to transfect for 24 hours. Afterwards, 100 μl of Promega's ONE-Glo™ EX Luciferase Assay System or Promega's CellTiter-Glo® Luminescent Cell Viability Assay was added and mixed in their respective wells, followed by recording luminescence signals on a Thermo Scientific Varioskan LUX multimode microplate reader. The results are shown in FIG. 1, FIG. 2, FIG. 3, FIG. 4, FIG. 5, FIG. 6, FIG. 10, FIG. 11, and FIG. 21.

A further assay concerns B16F10 Cell Line. Put plainly: Transfection of B16F10 Cell Line with FLuc mRNA LNPs (ONE-Glo EX luciferase signal). It is filed as cell-based. Particulars: 200 ng Fluc mRNA-LNP, 24 hours; Table 4. How it is done: as §1, §2
The test system of the next assay is MC38.K Cell Line. Put plainly: Transfection of MC38.K Cell Line with FLuc mRNA LNPs (ONE-Glo EX luciferase signal). It is filed as cell-based. Conditions: 200 ng Fluc mRNA-LNP, 24 hours; Table 4. Here is the method: as §1, §2
The next assay deals with Liver. In words: Ex-vivo luminescence signal from liver after IV Fluc mRNA LNPs in CD1 mice (IVIS). Conditions: tail vein 1.0 mg/kg Day 0 and Day 2, imaging 18 hours after second dose, Table 4.

`CCCCCCCCC(CCCCCCCC)C(=O)OCCCCCCCN(CCCCCC(=O)OCCCCCCCCC(C)C)CCOC(=O)CCCN(C)C` [Compound 9]: in the assay with AML12 Cell Line, the “Total Luciferin Signal (RLU) In Vitro - AML12” value came to 6.57E+05 RLU. The “Total Luciferin Signal (RLU) In Vitro - B16F10” value in the assay on B16F10 Cell Line came to 3.27E+06 RLU. For the same compound, in the assay with MC38.K Cell Line, the “Total Luciferin Signal (RLU) In Vitro - MC38.K” value came out at 1.23E+06 RLU. Further, in the assay on Liver, the “Total Liver Tissue Luciferin Signal (Photons/s) Ex-vivo - CD1” value (shortened to “Total Liver Tissue Luciferin Signal”) came to 4.41E+07 Photons/s.

For `CCCCCCCCC(CCCCCCCCF)OC(=O)CCCCCCCN(CCO)CCCCCCCC(=O)OCCCCCCCCC(C)C` (stereo not shown) [Compound 10], in the assay on AML12 Cell Line, the “Total Luciferin Signal (RLU) In Vitro - AML12” value is recorded as 7.51E+05 RLU. The “Total Luciferin Signal (RLU) In Vitro - B16F10” value in the assay on B16F10 Cell Line came out at 4.57E+05 RLU. Also, the “Total Luciferin Signal (RLU) In Vitro - MC38.K” value in the assay with MC38.K Cell Line is recorded as 6.38E+05 RLU. For the same compound, in the assay on Liver, the “Total Liver Tissue Luciferin Signal” value is given as 8.34E+09 Photons/s.

On to `CCCCCCCCC(CCCCCCCC)OC(=O)CCCCCCCN(CCO)CCCCCCCOC(=O)CCCCCCCCC(C)C` [Compound 11], for which, in the assay with AML12 Cell Line, the “Total Luciferin Signal (RLU) In Vitro - AML12” value came to 4.29E+06 RLU. In the assay on B16F10 Cell Line, the “Total Luciferin Signal (RLU) In Vitro - B16F10” value was 7.92E+06 RLU. The “Total Luciferin Signal (RLU) In Vitro - MC38.K” value with MC38.K Cell Line is listed as 7.64E+06 RLU. In addition, in the assay on Liver, the “Total Liver Tissue Luciferin Signal” value amounted to 4.88E+09 Photons/s.

Regarding `CCCCCCCCC(CCCCCCCC)OC(=O)CCCCCCCN(CCCCCCCOC(=O)CCCCCCCCC(C)C)CCOC(=O)CCCN(C)C` [Compound 12], the “Total Luciferin Signal (RLU) In Vitro - AML12” value in the assay with AML12 Cell Line is on record as 7.43E+05 RLU. The “Total Luciferin Signal (RLU) In Vitro - B16F10” value in the assay on B16F10 Cell Line was 2.79E+06 RLU. Also, the “Total Luciferin Signal (RLU) In Vitro - MC38.K” value with MC38.K Cell Line came out at 4.07E+06 RLU. Also, the “Total Liver Tissue Luciferin Signal” value in the assay with Liver is 4.15E+07 Photons/s.

With `CCCCCCCCC(CCCCCCCC)C(=O)OCCCCCCCN(CCO)CCCCCCCOC(=O)CCCCCCCCC(C)C` [Compound 14], the “Total Luciferin Signal (RLU) In Vitro - AML12” value with AML12 Cell Line is 2.94E+06 RLU. Moreover, the “Total Luciferin Signal (RLU) In Vitro - B16F10” value in the assay on B16F10 Cell Line was 5.12E+06 RLU. The “Total Luciferin Signal (RLU) In Vitro - MC38.K” value in the assay on MC38.K Cell Line stood at 4.71E+06 RLU. For the same compound, the “Total Liver Tissue Luciferin Signal” value in the assay with Liver is on record as 1.93E+09 Photons/s.

Regarding `CCCCCCCCC(CCCCCCCC)OC(=O)CCCCCN(CCO)CCCCCC(=O)OCCCCCCCCCCC(C)C` [Compound 16], in the assay with AML12 Cell Line, the “Total Luciferin Signal (RLU) In Vitro - AML12” value is reported as 1.67E+06 RLU. For the same compound, the “Total Luciferin Signal (RLU) In Vitro - B16F10” value with B16F10 Cell Line came to 7.67E+06 RLU. Moreover, the “Total Luciferin Signal (RLU) In Vitro - MC38.K” value in the assay with MC38.K Cell Line is recorded as 2.39E+06 RLU. Moreover, the “Total Liver Tissue Luciferin Signal” value in the assay with Liver is reported as 5.11E+09 Photons/s.

Take `CCCCCCCCCCCOC(=O)CCCCCN(CCCCCCCC(=O)OC(CCCCCCCC)CCCCCC(C)C)CCOC(=O)CCCN(C)C` (stereo not shown) [Compound 19]: the “Total Luciferin Signal (RLU) In Vitro - AML12” value with AML12 Cell Line came to 6.91E+05 RLU. The “Total Luciferin Signal (RLU) In Vitro - B16F10” value in the assay on B16F10 Cell Line is 1.27E+06 RLU. Further, the “Total Luciferin Signal (RLU) In Vitro - MC38.K” value in the assay on MC38.K Cell Line was found to be 1.90E+06 RLU. For the same compound, the “Total Liver Tissue Luciferin Signal” value in the assay with Liver is 1.28E+08 Photons/s.

As to `CCCCCCCCC(CCCCCCCC)C(=O)OCCCCCCCN(CCO)CCCCCCCOC(=O)CCCCCCCC=C(C)C` [Compound 20], the “Total Luciferin Signal (RLU) In Vitro - AML12” value with AML12 Cell Line was 7.65E+05 RLU. Further, in the assay on B16F10 Cell Line, the “Total Luciferin Signal (RLU) In Vitro - B16F10” value is 4.65E+05 RLU. Besides, the “Total Luciferin Signal (RLU) In Vitro - MC38.K” value in the assay with MC38.K Cell Line is given as 7.88E+05 RLU. Further, the “Total Liver Tissue Luciferin Signal” value in the assay with Liver is given as 7.61E+09 Photons/s.

As to `CCCCCCCCCCCOC(=O)CCCCCN(CCO)CCCCCCCC(=O)OC(CCCCCCCC)CCCCCCCF` (stereo not shown) [Compound 24], the “Total Luciferin Signal (RLU) In Vitro - AML12” value in the assay on AML12 Cell Line was 5.98E+05 RLU. In the assay on B16F10 Cell Line, the “Total Luciferin Signal (RLU) In Vitro - B16F10” value was determined as 3.37E+05 RLU. Also, in the assay with MC38.K Cell Line, the “Total Luciferin Signal (RLU) In Vitro - MC38.K” value came to 7.60E+05 RLU. The “Total Liver Tissue Luciferin Signal” value in the assay on Liver is reported as 1.04E+10 Photons/s.

Consider `CCCCCCCCCOC(=O)CCCCCN(CCO)CCCCCCCC(=O)OC(CCCCCCCC)CCCCCCCF` (stereo not shown) [Compound 25], for which the “Total Luciferin Signal (RLU) In Vitro - AML12” value in the assay with AML12 Cell Line is 1.09E+05 RLU. The “Total Luciferin Signal (RLU) In Vitro - B16F10” value with B16F10 Cell Line was found to be 4.43E+05 RLU. Moreover, the “Total Luciferin Signal (RLU) In Vitro - MC38.K” value in the assay on MC38.K Cell Line amounted to 9.18E+05 RLU. In the assay with Liver, the “Total Liver Tissue Luciferin Signal” value turned out to be 2.05E+09 Photons/s.
